Results as given in patent US9987256B2, “CFTR corrector for the treatment of genetic disorders affecting striated muscle” (UNIVERSITA' DEGLI STUDI DI PADOVA, priority 2012, dated 2018).
Numbering of substitutions follows the chain as printed.

Experiments:
[1] = target: T1, R98H mutant of alpha-sarcoglycan (Homo sapiens, UniProt Q16586, R98H); test: Western blot rescue of R98H mutant of alpha-sarcoglycan in HEK293 cell model; format: cell-based; details: HEK293, 24 hours; for alpha-sarcoglycan protein level (western blot, densitometry), rescue of R98H mutant: A 2 μM
T1 construct: expressed in transfected cells; host or cells: HEK293
T1 sequence (Q16586 24-387 R98H): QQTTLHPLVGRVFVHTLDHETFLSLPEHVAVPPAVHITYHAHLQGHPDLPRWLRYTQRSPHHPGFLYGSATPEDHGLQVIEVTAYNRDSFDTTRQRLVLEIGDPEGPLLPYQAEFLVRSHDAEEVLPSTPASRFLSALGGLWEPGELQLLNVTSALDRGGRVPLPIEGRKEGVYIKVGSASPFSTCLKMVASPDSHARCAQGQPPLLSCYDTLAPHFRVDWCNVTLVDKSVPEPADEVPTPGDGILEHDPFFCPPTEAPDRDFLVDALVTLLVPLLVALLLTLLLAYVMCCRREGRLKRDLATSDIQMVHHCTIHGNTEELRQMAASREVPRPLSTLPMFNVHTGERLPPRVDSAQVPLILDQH
Description: (§1) HEK293 cells expressing different α-SG mutants have been treated with the Compounds A, B, C, D, E, F, H, I, Q, R, S and T according to protocols developed in CF studies [Loo and Clarke 2011; Becq et al 2011, Pedemonte et al 2005; Wang et al 2006]. Concentration and time-dependent recovery of treated mutants have been evaluated by Western blotting. The proteasome inhibitor MG132, at the concentration of 10 μM, or DMSO at 1‰ concentration, have been used as positive and negative control, respectively.
In FIG. 1 the result obtained by treating cells expressing the R98H mutant of α-SG for 24 hours with Compound C 5 μM, Compound B 10 μM, Compound E 10 μM, Compound F 10 μM, Compound A 2 μM, Compound D 10 μM are shown. At the end of treatments, cells were lysed and total proteins resolved by SDS-PAGE. Western blotting has been performed by using α-SG specific antibody and β-actin specific antibody, used to normalize loaded proteins (in FIG. 1, upper panel, a representative experiment is shown). The expression of α-SG in different samples has been determined by densitometric analysis of the western blotting experiments and indicated as percentage of the protein present in cells expressing the R98H mutant treated with DMSO (negative control).
In FIG. 4 the result obtained by treating cells expressing the R98H mutant of α-SG for 24 hours with either Compound H 15 μM, Compound I 10 μM, Compound T 15 μM, Compound A 2 μM, or DMSO at 1‰ concentration, used as negative control, are shown. Cells expressing the wild type form of α-sarcoglycan have been used for comparison. At the end of treatments, cells were lysed and total proteins resolved by SDS-PAGE. Western blotting has been performed by using α-SG specific antibody and β-actin specific antibody, used to normalize loaded proteins (in upper panel of FIG. 4, a representative experiment is shown). The expression of α-SG in different samples has been determined by densitometric analysis of the western blotting experiments and indicated as percentage of the protein present in cells expressing the wild type form of α-sarcoglycan. […] The compounds tested induced the recovery of the R98H mutant to levels that in some cases were even greater than those present in HEK cells expressing the wild type protein.
(§2) In FIG. 5 the result obtained by treating cells expressing the R98H mutant of α-SG for 24 hours with either increasing concentration of Compound R (1, 2.5, 5 μM) or DMSO at 1‰ concentration, used as negative control, are shown. Cells expressing the wild type form of α-sarcoglycan have been used for comparison. At the end of treatments, cells were lysed and total proteins resolved by SDS-PAGE. Western blotting has been performed by using α-SG specific antibody and β-actin specific antibody, used to normalize loaded proteins (in upper panel of FIG. 5, a representative experiment is shown). The expression of α-SG in different samples has been determined by densitometric analysis of western blotting experiments and indicated as percentage of the protein present in cells expressing the wild type form of α-sarcoglycan.
as §2, with “6” for “5”, “Q (5, 10 μM), increasing concentration of Compound S (10, 15” for “R (1, 2.5, 5”, “1% o” for “1‰”, “6,” for “5,”

[2] = target: T2, D97G mutant of alpha-sarcoglycan (Homo sapiens, UniProt Q16586, D97G); test: Western blot rescue of D97G mutant of alpha-sarcoglycan in HEK293 cell model; format: cell-based; details: FIG. 7; HEK293, 24 hours; E 10 μM, H 15 μM, I 10 μM, Q 10 μM, F 10 μM, R 5 μM, S 15 μM, T 15 μM, A 2 μM; relative to wild type
T2 construct: expressed in transfected cells; host or cells: HEK293
T2 sequence (Q16586 24-387 D97G): T1 sequence (Q16586 24-387 R98H) with D74G, H75R
Description: as §1
In FIG. 7 is shown the content of α-sarcoglycan protein present in HEK cells transfected with the D97G mutant of α-SG treated for 24 hours with either Compound E 10 μM, Compound H 15 μM, Compound I 10 μM, Compound Q 10 μM, Compound F 10 μM, Compound R 5 μM, Compound S 15 μM, Compound T 15 μM, Compound A 2 μM, or DMSO at 1‰ concentration, used as negative control, are shown. Cells expressing the wild type form of α-sarcoglycan have been used for comparison. At the end of treatments, cells were lysed and total proteins resolved by SDS-PAGE. Western blotting has been performed by using α-SG specific antibody and β-actin specific antibody, used to normalize loaded proteins. The expression of α-SG in different samples has been determined by densitometric analysis of western blotting experiments and indicated as percentage of the protein present in cells expressing the wild type form of α-sarcoglycan. […] The compounds tested induce the recovery of the D97G mutant that in some cases reached the level present in HEK cells expressing the wild type protein.

[3] = FIG. 1, C 5 μM, B 10 μM, E 10 μM, F 10 μM, D 10 μM, relative to R98H cells treated with DMSO
[4] = FIG. 4, H 15 μM, I 10 μM, T 15 μM, relative to cells expressing wild type
[5] = FIG. 6, Compound Q 5, 10 μM, Compound S 10, 15 μM
[6] = FIG. 6, highest concentrations (Q 10 μM, S 15 μM)

Row | SMILES | alpha-sarcoglycan protein level (western blot, densitometry), rescue of R98H mutant [1, 3] | alpha-sarcoglycan protein level (western blot, densitometry), rescue of R98H mutant [1, 4] | alpha-sarcoglycan protein level (western blot, densitometry), rescue of D97G mutant [2] | further results
1 | COc1ccc(Cl)cc1Nc1nc(-c2sc(NC(=O)C(C)(C)C)nc2C)cs1 [Compound A, N-(2-(5-chloro-2-methoxyphenylamino)-4′-methyl-4,5′-bithiazol-2′-yl)pivalamide] | promote the rescue | promote the rescue | promote the rescue | 
2 | COc1ccc(Cl)cc1Nc1nc(-c2sc(NC(=O)c3ccccc3)nc2C)cs1 [Compound E, N-[2-(5-Chloro-2-methoxy-phenylamino)-4′-methyl-[4,5′]bithiazolyl-2′-yl]-benzamide] | promote the rescue |  | promote the rescue | 
3 | O=S(=O)(c1ccc(Cl)cc1)N1CCN(c2ccnc3cc(Cl)ccc23)CC1 [Compound F, 7-chloro-4-(4-(4-chlorophenylsulfonyl)piperazin-1-yl)quinoline] | promote the rescue |  | promote the rescue | 
4 | Cc1cc(C)c2c(C)cc(Nc3ccccc3)nc2c1 [Compound H, 4,5,7-trimethyl-N-phenylquinolin-2-amine] |  | promote the rescue | promote the rescue | 
5 | Cc1cc(Nc2ccc(Br)cc2)nc2ccccc12 [Compound I, N-(4-bromophenyl)-4-methylquinolin-2-amine] |  | promote the rescue | promote the rescue | 
6 | CC(=O)c1cccc(Nc2nc(-c3sc(NC(=O)c4ccccc4)nc3C)cs2)c1 [Compound Q, N-(2-(3-acetylphenylamino)-4′-methyl-4,5′-bithiazol-2′-yl)-benzamide] |  |  | promote the rescue | alpha-sarcoglycan protein level, dose dependence of R98H mutant recovery [1, 5]: dose dependent recovery; alpha-sarcoglycan protein level of R98H mutant versus wild type protein [1, 6]: reached the level of the wild type protein
7 | COc1ccccc1Nc1nc(-c2sc(NC(=O)c3ccccc3)nc2C)cs1 [Compound R, N-(2-(2-methoxyphenylamino)-4′-methyl-4,5′-bithiazol-2′-yl)-benzamide] |  |  | promote the rescue | alpha-sarcoglycan protein level, dose dependence of R98H mutant recovery ([1]; FIG. 5, Compound R 1, 2.5, 5 μM): dose dependent recovery; alpha-sarcoglycan protein level of R98H mutant versus wild type protein ([1]; FIG. 5, highest concentration (5 μM)): reached the level of the wild type protein
8 | C=Cc1ccc(-c2csc(Nc3ccccc3)n2)cc1 [Compound S, N-phenyl-4-(4-vinylphenyl)thiazol-2-amine] |  |  | promote the rescue | alpha-sarcoglycan protein level, dose dependence of R98H mutant recovery [1, 5]: dose dependent recovery; alpha-sarcoglycan protein level of R98H mutant versus wild type protein [1, 6]: reached the level of the wild type protein
9 | COc1ccc2nc(Nc3nc(=O)c(C)c(C)[nH]3)nc(C)c2c1 [Compound T, 2-(6-methoxy-4-methylquinazolin-2-ylamino)-5,6-dimethylpyrimidin-4(1H)-one] |  | promote the rescue | promote the rescue | 
